Source: patent US4440757A, “Pharmaceutical composition comprising derivative of aminobenzoic acid for regulating prostaglandin” (priority 1978, dated 1984)
Like-named read-outs stand apart in the source and are kept apart here.

Legend:
[1] = system: Salmonella typhimurium TA 98; assay: Mutagenicity, reversion assay, TA 98; type: cell-based
Method: (§1) (ii) The strains TA 98 and TA 100 (both are histidine requiring) of Salmonella typhimurium were used in the reversion assay.
(§2) Into 2 ml of a soft agar culture medium (the medium itself contains 6 g of sodium chloride and 6 g of agar in 1000 ml of distilled water) to which one tenth by volume of an aqueous solution of 0.5 mM of biotin and 0.5 mM of histidine had been added, 0.1 ml of the bacterial suspension and 0.1 ml of an aqueous solution of the present substance were admixed and the mixture was layered on the minimum agar culture medium. After 2 days of incubation at 37° C., the number of revertant colonies was counted. Furylfuramide (AF-2) was used as the positive control.

Ehrlich cancer = assay: Cancer proliferation and PGE in the cancer cells (Ehrlich); type: in vivo, C57BL/6 mouse; details: 100 mg/kg i.p. every other day, 14th day; for Weight of cancer: control 1.30; for Content of PGE in the cancer: control 1.77
Method: Following the same method as in Example 12, the anti-cancer action against transplanted Ehrlich cancer in C57BL/6 mouse, and the amount of PGE in the cancer cells in proliferation in the living body of the mouse were examined in the cases where each one compound of the present invention, Specimens Nos. 1, 2, 3, 4, 5, 6, 8, 9, 10 and 11 was intraperitoneally administered every other day from the next day of the transplantation in total 6 times at a dosage of 100 mg/kg.
The results of determination of the weight of cancer extirpated from the sacrificed mouse on 14th day of the transplantation of the cancer cells, 1×10^6 in number per animal, and content of PGE of the extirpated cancer are shown in the following Table 13: […]

[2] = Acute oral toxicity (Litchfield-Wilcoxon); details: in vivo, mouse, 7 days
Method: The acute oral toxicity of the present substances were examined by using groups of ICR-JCL mouse and orally administering each of the representatives of present substances forcibly as an aqueous solution in distilled water or as an aqueous suspension also in distilled water at predetermined dosages, respectively. After observing the toxicological symptoms, if any, for 6 days, and recording the mortality until 7th day of the administration, LD50 (acute oral) was calculated by the method of Litchfield-Wilcoxon, and autopsy was carried out on dead mice and live mice to obtain informations.

dog's stomach = type: in vivo, Beagle dog
Method: Five grams of the present substance (each of Specimens Nos. 1, 2, 3, 4, 5, 6, 7, 8, 9, 10 and 11) and of aspirin were respectively administered to each Beagle of body weight of 9 to 12 kg as an aqueous suspension in distilled water of adjusted pH of 3, and after 90 min of the administration, the state of hemorrhage in the dog's stomach was examined.

[3] = system: Salmonella typhimurium TA 100; assay: Mutagenicity, reversion assay, TA 100; type: cell-based
Method: as §1, §2

Bacillus subtilis H 17 = assay: Mutagenicity, rec-assay, strain H 17; type: cell-based; details: 10 μg/disk, negative control
Method: (§3) As the first stage, the present substances were tested by rec-assay (i), and as the second stage, they were tested by reversion assay (ii).
(§4) (i) A strain of Bacillus subtilis M 45, a defectant of recombination repair, and a wild strain of Bacillus subtilis H 17 keeping recombination repair activity were inoculated to make their own streaks not crossed at the start on a B-2 agar culture plate (made by dissolving 10 g of meat extract, 10 g of polypeptone, 5 g of sodium chloride and 15 g of agar in 1000 ml of distilled water at pH 7.0). Then, a paper disc of 8 mm in diameter, which absorbed 0.04 ml of an aqueous solution of the present substance in sterilized water was put on the surface of the agar plate so as to cover the starting point of the above-mentioned streaks of bacterial culture. The inoculated B-2 agar plate was kept at 37° C. for a night and the length of growth-inhibited region was measured.

Bacillus subtilis M 45 = assay: Mutagenicity, rec-assay, strain M 45; type: cell-based; details: 10 μg/disk, negative control
Method: as §3, §4

male Sprague-Dowley rats [4] = assay: Leakage of dye-staff after skin stimulation with histamine and PGE1; type: in vivo; details: challenge agents only, no present substance
Method: To the three groups of male Sprague-Dowley rats of the total six groups, the respective present substances (Specimens Nos. 4, 7 and 8) were forcibly administered by oral route at the rate of 1000 mg/kg, the other three groups being administered nothing at this time. After 60 min of the administration, a mixture of PGE1 (2.5×10^-11 mol/animal) and histamine (2×10^-8 mol/animal) was intracutaneously injected under light […] into the shaved skin of an abdominal part of four groups of the rats including three groups administered with the present substance.

male Sprague-Dowley rats [5] = assay: Foot-oedema induced by carrageenin and PGE1; type: in vivo; details: challenge agents only, no present substance; 60 min
Method: The three groups of male Sprague-Dowley rats of total six groups, the respective present substances, Specimens Nos. 4, 7 and 8 were administered forcibly by oral route at a rate of 1000 mg/kg, the other three groups of the same kind of rats being administered nothing at this time.
After 60 min of the administration, 0.1 ml of an aqueous solution of carrageenin (1 mg) and PGE1 (0.1 μg) was injected onto the hind paw of the four groups of the rats including the three groups administered with the present substance. To one group of remaining two groups not administered with the present substance, 0.1 ml of an aqueous solution containing only carrageenin at 1% was injected, and to the other one group not administered with the present substance, an aqueous solution containing only PGE1 was injected.
The volume of the thus swollen foot of the groups of the thus treated rats was measured by the water-displacement method, and the results are shown in Table 17 by the increment of the volume of foot as compared to the volume of foot before the treatment as percentage.

Row | SMILES | Number of revertant colonies TA 98 ([1]; 5,000 μg/plate, control 13) [number per plate] | Weight of cancer (Ehrlich cancer) [g] | Content of PGE in the cancer (Ehrlich cancer) [ng/g] | LD50 at 168 h [2] [mg/kg] | hemorrhage in the stomach (dog's stomach; dog, in vivo) | Number of revertant colonies TA 100 ([3]; 5,000 μg/plate, control 149) [number per plate] | further results
1 | O=C(O)c1ccc(NC2O[C@H](CO)[C@H](O)[C@H](O)[C@H]2O)cc1 (stereo partly drawn) [Specimen No. 6, Sodium p-aminobenzoate-N--D-galactoside] | 7 | 0.65 | 3.66 | 14600 | no hemorrhage in the stomach was found | 51 | –
2 | NC[C@H]1O[C@H](O[C@H]2[C@H](O)[C@@H](O[C@H]3O[C@H](CO)[C@@H](O)[C@H](N)[C@H]3O)[C@H](N)C[C@@H]2N)[C@H](O)[C@@H](O)[C@@H]1O [Kanamycin] | – | – | – | – | – | – | Length of inhibition growth zone H 17 (Bacillus subtilis H 17): 4 mm; Length of inhibition growth zone M 45 (Bacillus subtilis M 45): 5 mm; difference (M 45 minus H 17) (Bacillus subtilis M 45): 1 mm
3 | O=C(O)c1cccc(NC2O[C@H](CO)[C@@H](O)[C@H](O)[C@@H]2O)c1 (stereo partly drawn) [Specimen No. 3, Sodium m-aminobenzoate-N--D-mannoside] | 6 | 0.74 | 4.23 | > 10000 | no hemorrhage in the stomach was found | 90 | –
4 | O=C(O)c1ccc(NC2O[C@H](CO)[C@@H](O)[C@H](O)[C@H]2O)cc1 (stereo partly drawn) [Specimen No. 5, Sodium p-aminobenzoate-N--D-glucoside] | 11 | 0.70 | 3.20 | > 15000 | no hemorrhage in the stomach was found | 104 | –
5 | CC(=O)Oc1ccccc1C(=O)O [aspirin, reference compound] | – | – | – | – | – | – | hemorrhage in the stomach (dog's stomach; 5 g, 90 min after administration): hemorrhage in the stomach was observed
6 | O=C(O)c1ccccc1NC1O[C@H](CO)[C@H](O)[C@H](O)[C@H]1O (stereo partly drawn) [Specimen No. 1, Sodium o-aminobenzoate-N--D-galactoside] | 6 | 0.63 | 4.10 | 6100 | no hemorrhage in the stomach was found | 151 | –
7 | O=C(O)c1ccc(NC2OC[C@H](O)[C@H](O)[C@H]2O)cc1 (stereo partly drawn) [Specimen No. 10, Sodium p-aminobenzoate-N--L-arabinoside] | 3 | 0.70 | 4.14 | 10800 | no hemorrhage in the stomach was found | 51 | –
8 | NCCc1c[nH]cn1 [Histamine, histamine, reference compound] | – | – | – | – | – | – | Absorbance at 620 nm (dye leakage) (male Sprague-Dowley rats [4]): 0.192
9 | O=C(O)c1ccc(NC2(CO)OC[C@@H](O)[C@@H](O)[C@@H]2O)cc1 (stereo partly drawn) [Specimen No. 9, Sodium p-aminobenzoate-N--D-fructoside] | 5 | 0.80 | 4.32 | > 10000 | no hemorrhage in the stomach was found | 95 | –
10 | C[C@@H]1OC(Nc2ccccc2C(=O)O)[C@H](O)[C@H](O)[C@H]1O (stereo partly drawn) [Specimen No. 2, Sodium o-aminobenzoate-N--L-rhamnoside] | 9 | 0.81 | 3.88 | 12500 | no hemorrhage in the stomach was found | 61 | –
11 | NC(=O)C(=Cc1ccc([N+](=O)[O-])o1)c1ccco1 [Furylfuramide, reference compound] | – | – | – | – | – | – | Number of revertant colonies TA 98 ([1]; 0.1 μg/plate, positive control): 167 number per plate; Number of revertant colonies TA 100 ([3]; 0.1 μg/plate, positive control): 911 number per plate
12 | COC(=O)c1ccccc1NC1O[C@H](CO)[C@@H](O)[C@H](O)[C@@H]1O (stereo partly drawn) [Specimen No. 11, Methyl o-aminobenzoate-N--D-mannoside] | 8 | 0.69 | 4.20 | > 7500 | no hemorrhage in the stomach was found | 95 | –
13 | CCCCC[C@H](O)/C=C/[C@H]1[C@H](O)CC(=O)[C@@H]1CCCCCCC(=O)O [PGE1, reference compound] | – | – | – | – | – | – | Absorbance at 620 nm (dye leakage) (male Sprague-Dowley rats [4]): 0.066; Percentage increment of volume of foot (male Sprague-Dowley rats [5]): 9.3%
